From article PMC9917201, “Enhanced Antibacterial Activity of Substituted Derivatives of NCR169C Peptide” (International Journal of Molecular Sciences, 2023)
Values after ≈ are worked out from the molar mass of the structure shown. Where two headings read alike, the source gives them in different places. Non-standard residues stand in square brackets, D forms with d. Residues, ends and D or L forms follow the SMILES beside them. ξ: configuration not given here. ξTrp(5-Me) = Cc1ccc2[nH]cc(CC(N)C(=O)O)c2c1; ξTrp(7-aza) = NC(Cc1c[nH]c2ncccc12)C(=O)O

Key:
[1] = test system: tested bacteria (ESKAPE pathogens, Listeria monocytogenes, Salmonella enterica); assay type: cell-based
Source text: (§1) The bacterial strains for the antimicrobial assay were obtained from the ATCC (American Type Culture Collection, Manassas, VA, USA) and NCTC (National Collection of Type Cultures, Salisbury, UK). Gram-negative strains were Pseudomonas aeruginosa (ATCC 27853), Escherichia coli (ATCC 8739, ATCC 35218, and ATCC 25922), Salmonella enterica (ATCC 13076), Klebsiella pneumoniae (NCTC 13440), Acinetobacter baumannii (ATCC 17978) and the Gram-positive strains were Enterococcus faecalis (ATCC 29212), Listeria monocytogenes (ATCC 19111), and Staphylococcus aureus (HNCMO112011 and ATCC 25923).
(§2) Determination of antibacterial activity for the peptides was carried out by utilizing a minimum bactericidal concentration (MBC) bioassay. Synthesized peptides were dissolved in sterile water and used from 25 to 0.125 μM in 2-fold dilution series and incubated with ~10^7 log phase bacteria in Potassium-Phosphate Buffer (PPB, pH: 7.4) for three hours as described earlier. After that, 5 μl of each sample was placed on LB agar and the growth of bacteria was monitored after overnight incubation at 37 °C. The lowest concentration of the antimicrobial agents that completely eliminated viable bacteria was considered the minimal bactericidal concentration (MBC).

[2] = test system: Staphylococcus aureus (HNCMO112011); assay type: cell-based
Source text: as §1, §2

[3] = test system: Listeria monocytogenes (ATCC 19111); assay type: cell-based
Source text: as §1, §2

[4] = test system: Salmonella enterica (ATCC 13076); assay type: cell-based
Source text: as §1, §2

[5] = test system: Enterococcus faecalis (ATCC 29212); assay type: cell-based
Source text: as §1, §2

[6] = test system: Klebsiella pneumoniae (NCTC 13440); assay type: cell-based
Source text: as §1, §2

[7] = test system: Pseudomonas aeruginosa (ATCC 27853); assay type: cell-based
Source text: as §1, §2

[8] = test system: Acinetobacter baumannii (ATCC 17978); assay type: cell-based
Source text: as §1, §2

[9] = test system: Escherichia coli (ATCC 8739); assay type: cell-based
Source text: as §1, §2

S. aureus (ATCC 25923) = assay type: cell-based, Staphylococcus aureus; settings: ATCC 25923, 3 h, pH 7.4
Source text: as §1, §2

E. coli (ATCC 25922) = assay type: cell-based, Escherichia coli; settings: ATCC 25922, 3 h, pH 7.4
Source text: as §1, §2

E. coli (ATCC 35218) = assay type: cell-based, Escherichia coli; settings: ATCC 35218, 3 h, pH 7.4
Source text: as §1, §2

[10] = Listeria monocytogenes ATCC 19111, ~10^7 log phase bacteria, 3 h in PPB pH 7.4, peptide 25 to 0.125 μM 2-fold series, plated on LB agar, overnight 37 °C
[11] = Enterococcus faecalis ATCC 29212, ~10^7 log phase bacteria, 3 h in potassium-phosphate buffer (PPB) pH 7.4, peptide 25 to 0.125 μM 2-fold series, 5 μl on LB agar, overnight 37 °C

Compound | MBC against most or all of the tested bacteria ([1]; 3 h, pH 7.4) [µM] | Minimal bactericidal concentration (MBC) S. a. ([2]; HNCMO112011, 3 h, pH 7.4) [µM] | Minimal bactericidal concentration (MBC) L. m. ([3]; ATCC 19111, 3 h, pH 7.4) [µM] | Minimal bactericidal concentration (MBC) S. e. ([4]; ATCC 13076, 3 h, pH 7.4) [µM] | Minimal bactericidal concentration (MBC) E. f. ([5]; ATCC 29212, 3 h, pH 7.4) [µM] | Minimal bactericidal concentration (MBC) K. p. ([6]; NCTC 13440, 3 h, pH 7.4) [µM] | Minimal bactericidal concentration (MBC) P. a. ([7]; ATCC 27853, 3 h, pH 7.4) [µM] | Minimal bactericidal concentration (MBC) A. b. ([8]; ATCC 17978, 3 h, pH 7.4) [µM] | Minimal bactericidal concentration (MBC) E. c. ([9]; ATCC 8739, 3 h, pH 7.4) [µM] | Minimal bactericidal concentration (MBC) L. m. [3, 10] [µM] | Minimal bactericidal concentration (MBC) E. f. [5, 11] [µM] | other results
CC[C@H](C)[C@H](NC(=O)[C@H](CCCCN)NC(=O)[C@H](Cc1ccccc1)NC(=O)[C@H](CC(C)C)NC(=O)[C@@H]1CCCN1C(=O)[C@H](CCCCN)NC(=O)[C@H](CCCCN)NC(=O)[C@H](CO)NC(=O)[C@@H](N)CCCCN)C(=O)N[C@@H](Cc1c[nH]c2ccccc12)C(=O)N[C@@H](CCCCN)C(=O)N[C@@H](CO)C(=O)N[C@H](C(=O)N[C@@H](CCC(=O)O)C(=O)N[C@@H](CC(N)=O)C(=O)N[C@H](C(=O)N[C@@H](CO)C(=O)N[C@H](C(=O)N[C@@H](CC(C)C)C(=O)NC(Cc1c[nH]c2ccc(C)cc12)C(=O)N[C@@H](Cc1ccc(O)cc1)C(=O)N[C@@H](CCCCN)C(N)=O)C(C)C)C(C)C)C(C)C (some centres unmarked) [NCR169C17–38C12,17/S-20W^5-Me I] (H-KSKKPLFKIWKSVENVSVL[ξTrp(5-Me)]YK-NH2; N-terminus assumed) | 6.3 to 12.5 | 6.3 (≈ 17.1 µg/mL) | 6.3 (≈ 17.1 µg/mL) | 6.3 (≈ 17.1 µg/mL) | 12.5 (≈ 34 µg/mL) | 12.5 (≈ 34 µg/mL) | 6.3 (≈ 17.1 µg/mL) | 6.3 (≈ 17.1 µg/mL) | 6.3 (≈ 17.1 µg/mL) | – | – | –
CC[C@H](C)[C@H](NC(=O)[C@H](CCCCN)NC(=O)[C@H](Cc1ccccc1)NC(=O)[C@H](CC(C)C)NC(=O)[C@@H]1CCCN1C(=O)[C@H](CCCCN)NC(=O)[C@H](CCCCN)NC(=O)[C@H](CO)NC(=O)[C@@H](N)CCCCN)C(=O)N[C@@H](Cc1c[nH]c2ccccc12)C(=O)N[C@@H](CCCCN)C(=O)N[C@@H](CO)C(=O)N[C@H](C(=O)N[C@@H](CCC(=O)O)C(=O)N[C@@H](CC(N)=O)C(=O)N[C@H](C(=O)N[C@@H](CO)C(=O)N[C@H](C(=O)N[C@@H](CC(C)C)C(=O)NC(Cc1c[nH]c2ncccc12)C(=O)N[C@@H](Cc1ccc(O)cc1)C(=O)N[C@@H](CCCCN)C(N)=O)C(C)C)C(C)C)C(C)C (some centres unmarked) [NCR169C17–38C12,17/S-20W^7-Aza II] (H-KSKKPLFKIWKSVENVSVL[ξTrp(7-aza)]YK-NH2; N-terminus assumed) | 12.5 | 12.5 (≈ 33.9 µg/mL) | 12.5 (≈ 33.9 µg/mL) | 12.5 (≈ 33.9 µg/mL) | 12.5 (≈ 33.9 µg/mL) | 12.5 (≈ 33.9 µg/mL) | 12.5 (≈ 33.9 µg/mL) | 12.5 (≈ 33.9 µg/mL) | 12.5 (≈ 33.9 µg/mL) | – | – | –
CC[C@H](C)[C@H](NC(=O)[C@H](CCCCN)NC(=O)[C@H](Cc1ccccc1)NC(=O)[C@H](CC(C)C)NC(=O)[C@@H]1CCCN1C(=O)[C@H](CCCCN)NC(=O)[C@H](CCCCN)NC(=O)[C@H](CO)NC(=O)[C@@H](N)CCCCN)C(=O)N[C@@H](Cc1c[nH]c2ccccc12)C(=O)N[C@@H](CCCCN)C(=O)N[C@@H](CO)C(=O)N[C@H](C(=O)N[C@@H](CCC(=O)O)C(=O)N[C@@H](CC(N)=O)C(=O)N[C@H](C(=O)N[C@@H](CO)C(=O)N[C@H](C(=O)N[C@@H](CC(C)C)C(=O)NC(Cc1c[nH]c2ncccc12)C(=O)N[C@@H](Cc1ccc(O)cc1)C(=O)N[C@@H](CCCCN)C(N)=O)C(C)C)C(C)C)C(C)C (some centres unmarked) [NCR169C17–38C12,17/S-20W^7-Aza I] (H-KSKKPLFKIWKSVENVSVL[ξTrp(7-aza)]YK-NH2; N-terminus assumed) | 6.3 | 6.3 (≈ 17.1 µg/mL) | – | 6.3 (≈ 17.1 µg/mL) | – | 6.3 (≈ 17.1 µg/mL) | 6.3 (≈ 17.1 µg/mL) | 6.3 (≈ 17.1 µg/mL) | 3.1 (≈ 8.4 µg/mL) | 25 (≈ 67.7 µg/mL) | 25 (≈ 67.7 µg/mL) | –
CC[C@H](C)[C@H](NC(=O)[C@H](CCCCN)NC(=O)[C@H](Cc1ccccc1)NC(=O)[C@H](CC(C)C)NC(=O)[C@@H]1CCCN1C(=O)[C@H](CCCCN)NC(=O)[C@H](CCCCN)NC(=O)[C@H](CO)NC(=O)[C@@H](N)CCCCN)C(=O)N[C@@H](Cc1c[nH]c2ccccc12)C(=O)N[C@@H](CCCCN)C(=O)N[C@@H](CO)C(=O)N[C@H](C(=O)N[C@@H](CCC(=O)O)C(=O)N[C@@H](CC(N)=O)C(=O)N[C@H](C(=O)N[C@@H](CO)C(=O)N[C@H](C(=O)N[C@@H](CC(C)C)C(=O)N[C@@H](Cc1c[nH]c2ccccc12)C(=O)N[C@@H](Cc1ccc(O)cc1)C(=O)N[C@@H](CCCCN)C(N)=O)C(C)C)C(C)C)C(C)C [NCR169C17–38C12,17/S] (H-KSKKPLFKIWKSVENVSVLWYK-NH2) | – | 1.6 (≈ 4.33 µg/mL) | 3.1 (≈ 8.39 µg/mL) | 1.6 (≈ 4.33 µg/mL) | 3.1 (≈ 8.39 µg/mL) | 3.1 (≈ 8.39 µg/mL) | 3.1 (≈ 8.39 µg/mL) | 1.6 (≈ 4.33 µg/mL) | 1.6 (≈ 4.33 µg/mL) | – | – | MBC S.a. ATTC 25923 (S. aureus (ATCC 25923)): 3.1 µM (≈ 8.39 µg/mL); MBC E.c. ATTC 25922 (E. coli (ATCC 25922)): 1.6 µM (≈ 4.33 µg/mL); MBC E.c. ATTC 35218 (E. coli (ATCC 35218)): 3.1 µM (≈ 8.39 µg/mL)
KSKKPLFKIWKSVENVSVLW^5-MeOYK [NCR169C17–38C12,17/S-20W^5-MeO, NCR169C17–38C12,17/S analog with 5-methoxy tryptophan at position 20, forms not separated] | – | – | – | – | – | – | – | – | – | 3.1 | 3.1 | MBC against most or all of the tested bacteria ([1]; summary over the tested bacterial species, 3 h in PPB pH 7.4): 3.1 µM; Minimal bactericidal concentration (MBC) S. a. ([2]; Staphylococcus aureus HNCMO112011, ~10^7 log phase bacteria, 3 h in PPB pH 7.4, peptide 25 to 0.125 μM 2-fold series, plated on LB agar, overnight 37 °C): 3.1 µM; Minimal bactericidal concentration (MBC) S. e. ([4]; Salmonella enterica ATCC 13076, ~10^7 log phase bacteria, 3 h in PPB pH 7.4, peptide 25 to 0.125 μM 2-fold series, plated on LB agar, overnight 37 °C): 3.1 µM; Minimal bactericidal concentration (MBC) K. p. ([6]; Klebsiella pneumoniae NCTC 13440, ~10^7 log phase bacteria, 3 h in PPB pH 7.4, peptide 25 to 0.125 μM 2-fold series, plated on LB agar, overnight 37 °C): 3.1 µM; Minimal bactericidal concentration (MBC) P. a. ([7]; Pseudomonas aeruginosa ATCC 27853, ~10^7 log phase bacteria, 3 h in PPB pH 7.4, peptide 25 to 0.125 μM 2-fold series, plated on LB agar, overnight 37 °C): 0.8 µM; Minimal bactericidal concentration (MBC) A. b. ([8]; Acinetobacter baumannii ATCC 17978, ~10^7 log phase bacteria, 3 h in PPB pH 7.4, peptide 25 to 0.125 μM 2-fold series, plated on LB agar, overnight 37 °C): 3.1 µM; Minimal bactericidal concentration (MBC) E. c. ([9]; Escherichia coli ATCC 8739, ~10^7 log phase bacteria, 3 h in PPB pH 7.4, peptide 25 to 0.125 μM 2-fold series, plated on LB agar, overnight 37 °C): 3.1 µM
